Reference: PMC10938783, “A novel pan-PI3K inhibitor KTC1101 synergizes with anti-PD-1 therapy by targeting tumor suppression and immune activation” (Molecular Cancer, 2024)

System: JFCR39 panel of 39 human tumor cell lines
Test: JFCR39 panel growth inhibition, panel statistics
Type: cell-based
Details: Homo sapiens; JFCR39 panel; read-out: mean GI50 across all 39 cell lines
Description: JFCR39 drug discovery system was used to measure the growth inhibitory activities and identify the target of KTC1101. The JFCR39 panel consists of 39 cell lines seeded in 96-well plates. After 48-h treatment with KTC1101, cell growth was measured using the sulforhodamine B assay. […] The deviation of log GI50 for each cell line from the average log GI50 across the JFCR39 panel was plotted as a fingerprint. MG-MID (mean of Log GI50 values) represents the average log GI50 for all 39 cell lines. The most sensitive and least sensitive cell lines were identified by calculating the difference in their log GI50 values (Range) and the difference between the most sensitive cell line and the average GI50 on the JFCR39 panel (Delta). The fingerprint of KTC1101 was compared with the fingerprints of reference compounds in the database. The Pearson correlation coefficient (r) was calculated (n = 39).

COc1c(OCCCN2CCOCC2)ccc2c1N=C(NC(=O)c1cnc(N)nc1)N1CCN=C21 [Copanlisib, reference compound]
GI50: 134 nM
